Test results from the NIST ThermoML archive (doi:10.1021/acs.jced.5b01031).
Where “and” joins values, the source holds several entries; their conditions need not be identical. Identical values can stand only once.

Assay: mn = molality of the nth substance listed, in mol/kg
Settings: 81.5 kPa, Liquid; for mass density: Vibrating tube method; for viscosity: Capillary tube (Ostwald / Ubbelohde) method

NCC(=O)O [2-aminoacetic acid] + O
mass density [kg/m3]
Settings	m1 = 0.1001	m1 = 0.1498	m1 = 0.1998	m1 = 0.2497	m1 = 0.2999	m1 = 0.3502	m1 = 0.4005	m1 = 0.45	m1 = 0.4993
303.15 K	998.79	1000.34	1001.88	1003.42	1004.95	1006.44	1007.94	1009.44	1010.87
308.15 K	997.12	–	1000.16	1001.68	1003.19	1004.66	1006.15	1007.62	1009.05
313.15 K	995.14	996.61	998.06	999.5	1000.94	1002.34	1003.74	1005.12	1006.46

C[C@H](N)C(=O)O [(S)-2-aminopropanoic acid] + O
mass density [kg/m3]
Settings	m1 = 0.1001	m1 = 0.1501	m1 = 0.1998	m1 = 0.2502	m1 = 0.3	m1 = 0.3501	m1 = 0.3986	m1 = 0.4493	m1 = 0.4994
303.15 K	998.46	999.85	1001.23	1002.6	1003.96	1005.32	1006.62	1007.97	1009.28
308.15 K	996.83	998.21	999.58	1000.94	1002.29	1003.64	1004.93	1006.27	1007.56
313.15 K	995	996.39	997.76	999.11	1000.45	1001.77	1003.07	1004.36	1005.62

CC(C)[C@H](N)C(=O)O [L-valine] + O
mass density [kg/m3]
Settings	m1 = 0.1004	m1 = 0.1489	m1 = 0.1996	m1 = 0.2497	m1 = 0.3001	m1 = 0.3488	m1 = 0.3995	m1 = 0.4501	m1 = 0.4989
303.15 K	998.27	999.57	1000.84	1002.1	1003.33	1004.55	1005.74	1006.93	1008.09
308.15 K	996.63	997.9	999.16	1000.41	1001.63	1002.84	1004.02	1005.2	1006.34
313.15 K	994.92	996.25	997.55	998.83	1000.05	1001.27	1002.46	1003.61	1004.75

O=C([O-])c1ccccc1.[Na+] [sodium benzoate] + O
Settings	mass density, 303.15 K	mass density, 308.15 K	mass density, 313.15 K	viscosity, 303.15 K	viscosity, 308.15 K	viscosity, 313.15 K
m1 = 0.1011	1001.3 kg/m3 and 1001.31 kg/m3	999.49 kg/m3 and 999.34 kg/m3 and 999.62 kg/m3	997.41 kg/m3 and 997.51 kg/m3	0.845 mPa·s and 0.84 mPa·s	0.757 mPa·s and 0.758 mPa·s	0.686 mPa·s and 0.691 mPa·s
m1 = 0.3088	1012.46 kg/m3 and 1012.49 kg/m3	1010.59 kg/m3 and 1010.54 kg/m3 and 1010.6 kg/m3	1008.16 kg/m3 and 1008.27 kg/m3 and 1008.53 kg/m3	0.92 mPa·s and 0.926 mPa·s and 0.931 mPa·s	0.821 mPa·s and 0.837 mPa·s	0.748 mPa·s and 0.753 mPa·s
m1 = 0.5245	1023.61 kg/m3 and 1023.59 kg/m3 and 1023.51 kg/m3	1021.52 kg/m3 and 1021.61 kg/m3 and 1021.49 kg/m3	1019.94 kg/m3	1.024 mPa·s and 1.013 mPa·s and 1.019 mPa·s	0.918 mPa·s and 0.912 mPa·s	0.806 mPa·s and 0.812 mPa·s and 0.817 mPa·s
